Experimental data from patent US10047074B2, “Pharmaceutical compound” (IOmet Pharma Ltd., priority 2014, dated 2018).

Tests used:
[1] = target: T1, IDO (SKOV3) (Homo sapiens, UniProt P14902); test: SKOV3 Kynurenine cell based assay; conditions: SKOV3 human ovarian adenocarcinoma cells, IDO induced by IFN-γ; kynurenine production, 48 hours
T1 construct: IDO expression was induced in the SKOV3 cells by the addition of 500 ng/ml IFN-γ; endogenous in cells; host or cells: SKOV3 (human ovarian adenocarcinoma), IFN-γ induced
T1 sequence (P14902 whole entry): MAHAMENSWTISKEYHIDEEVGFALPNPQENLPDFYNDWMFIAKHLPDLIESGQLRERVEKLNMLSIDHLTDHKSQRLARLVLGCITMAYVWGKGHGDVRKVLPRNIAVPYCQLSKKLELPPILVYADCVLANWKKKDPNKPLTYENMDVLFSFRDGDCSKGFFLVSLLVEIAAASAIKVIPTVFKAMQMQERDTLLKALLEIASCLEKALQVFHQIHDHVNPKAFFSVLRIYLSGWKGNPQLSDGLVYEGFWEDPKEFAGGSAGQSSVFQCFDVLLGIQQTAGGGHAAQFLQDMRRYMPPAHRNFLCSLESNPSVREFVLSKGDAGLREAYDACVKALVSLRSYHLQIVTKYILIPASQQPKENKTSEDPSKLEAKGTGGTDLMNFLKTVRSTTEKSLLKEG
Experimental: (§1) Exemplary compounds of the invention were prepared, and tested to determine their effect as TDO and/or IDO inhibitors. Two different assays were employed: 1. a cell-based assay for detecting the effect of test compounds on kynurenine production in two different cancer cell types. This assay utilised cancer cells which expressed either TDO (A172) or IDO (SKOV3) and as such was used as a means of testing compound activity at these two enzymes in a cell-based context. 2. a TDO and IDO biochemical coupled assay which utilised recombinantly produced and purified TDO and IDO enzymes in combination with the enzyme formamidase. This coupled enzyme system allowed conversion of N-formylkynurenine produced by TDO or IDO activity to kynurenine which was then quantified by fluorescence following addition of Erhlich's Reagent The protocols for these are set out below.
(§2) Cell Based Assay for Detection of Kynurenine Produced by TDO and/or IDO
(§3) A172 (human glioblastoma) and SKOV3 (human ovarian adenocarcinoma) cells were seeded in a 96 well plate at 30,000 or 40,000 cells per well respectively in phenol red-free RPMI supplemented with 10% FCS, 2 mM L-glutamine and 500 µM L-tryptophan. IDO expression was induced in the SKOV3 cells by the addition of 500 ng/ml IFN-γ. Cells were incubated at 37° C. with or without the addition of test compound. After 48 hours, the cells were removed by centrifugation and Erhlich's reagent was added to the supernatant.

[2] = target: T2, TDO (A172) (Homo sapiens, UniProt P48775); test: A172 Kynurenine cell based assay; conditions: A172 human glioblastoma cells expressing TDO; kynurenine production, 48 hours
T2 construct: This assay utilised cancer cells which expressed either TDO (A172) or IDO (SKOV3); endogenous in cells; host or cells: A172 (human glioblastoma)
T2 sequence (P48775 whole entry): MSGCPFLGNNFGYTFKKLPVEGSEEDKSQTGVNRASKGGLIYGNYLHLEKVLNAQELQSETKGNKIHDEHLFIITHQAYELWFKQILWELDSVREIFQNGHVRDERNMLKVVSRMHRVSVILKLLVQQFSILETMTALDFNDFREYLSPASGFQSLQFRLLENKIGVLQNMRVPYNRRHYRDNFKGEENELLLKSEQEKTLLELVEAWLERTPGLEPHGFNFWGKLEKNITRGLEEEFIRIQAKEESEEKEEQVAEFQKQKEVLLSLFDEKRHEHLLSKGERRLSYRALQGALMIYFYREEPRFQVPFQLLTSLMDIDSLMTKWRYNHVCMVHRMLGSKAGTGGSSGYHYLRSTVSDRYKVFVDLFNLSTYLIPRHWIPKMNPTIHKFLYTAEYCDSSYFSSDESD
Experimental: as §1, §2
as §3, with “supernatant. The Erhlich's reagent was incubated for 5 minutes before the absorbance was read at 490 nm.” for “supernatant.”

Structure (SMILES)	SKOV3 Kynurenine cell based assay pIC50 [1]	A172 Kynurenine cell based assay pIC50 [2]
Cc1ccc(-c2cnoc2N)cc1 [Compound 3]	++ (++ = pIC50 4.50-5.49)	+++ (+++ = pIC50 ≥ 5.50)
Cc1noc(N)c1-c1ccc(F)cc1 [Compound 6]	+/− (+/− = pIC50 < 4.00)	++ (++ = pIC50 4.50-5.49)
Cc1noc(N)c1-c1ccc(Cl)cc1 [Compound 9]	+ (+ = pIC50 4.00-4.49)	++ (++ = pIC50 4.50-5.49)
Nc1oncc1-c1ccccn1 [Compound 11]	+ (+ = pIC50 4.00-4.49)	++ (++ = pIC50 4.50-5.49)
Nc1oncc1-c1ccc(F)c(F)c1 [Compound 12]	++ (++ = pIC50 4.50-5.49)	+++ (+++ = pIC50 ≥ 5.50)
Nc1oncc1-c1ccccc1Cl [Compound 15]	++ (++ = pIC50 4.50-5.49)	+ (+ = pIC50 4.00-4.49)
Nc1oncc1-c1cccnc1 [Compound 16]	++ (++ = pIC50 4.50-5.49)	++ (++ = pIC50 4.50-5.49)
O=C(Nc1oncc1-c1ccccc1)c1ccccc1 [Compound 18]	++ (++ = pIC50 4.50-5.49)	++ (++ = pIC50 4.50-5.49)
Nc1oncc1-c1ccccc1F [Compound 20]	++ (++ = pIC50 4.50-5.49)	++ (++ = pIC50 4.50-5.49)
Oc1oncc1-c1ccccc1 [Compound 23]	+/− (+/− = pIC50 < 4.00)	++ (++ = pIC50 4.50-5.49)
O=C(Nc1oncc1-c1ccccc1)C1CC1 [Compound 27]	++ (++ = pIC50 4.50-5.49)	++ (++ = pIC50 4.50-5.49)
CC(C)CS(=O)(=O)Nc1oncc1-c1ccccc1 [Compound 31]	++ (++ = pIC50 4.50-5.49)	+/− (+/− = pIC50 < 4.00)
CN1CCC(C(=O)Nc2oncc2-c2ccccc2)CC1 [Compound 36]	+ (+ = pIC50 4.00-4.49)	++ (++ = pIC50 4.50-5.49)
CS(=O)(=O)N1CCC(C(=O)Nc2oncc2-c2ccccc2)CC1 [Compound 38]	+ (+ = pIC50 4.00-4.49)	++ (++ = pIC50 4.50-5.49)
O=C(Nc1oncc1-c1ccccc1)c1ccncc1 [Compound 39]	++ (++ = pIC50 4.50-5.49)	+ (+ = pIC50 4.00-4.49)
O=C(Nc1oncc1-c1ccccc1)c1ccccn1 [Compound 40]	++ (++ = pIC50 4.50-5.49)	+++ (+++ = pIC50 ≥ 5.50)
O=C(CCO)Nc1oncc1-c1ccccc1 [Compound 41]	++ (++ = pIC50 4.50-5.49)	+++ (+++ = pIC50 ≥ 5.50)
OCCCNc1oncc1-c1ccccc1 [Compound 42]	+ (+ = pIC50 4.00-4.49)	+++ (+++ = pIC50 ≥ 5.50)
CCOC(=O)CC(=O)Nc1oncc1-c1ccccc1 [Compound 43]	++ (++ = pIC50 4.50-5.49)	+++ (+++ = pIC50 ≥ 5.50)
O=C(Nc1oncc1-c1ccccc1)C1CCCCN1 (stereo not shown) [Compound 44]	++ (++ = pIC50 4.50-5.49)	+++ (+++ = pIC50 ≥ 5.50)
COc1ccccc1-c1cnoc1-c1ccccc1 [Compound 51]	++ (++ = pIC50 4.50-5.49)	++ (++ = pIC50 4.50-5.49)
O=S(=O)(Nc1cnoc1-c1ccccc1)c1ccc2ccccc2c1 [Compound 53]	++ (++ = pIC50 4.50-5.49)	+ (+ = pIC50 4.00-4.49)
O=S(=O)(Nc1cnoc1-c1ccccc1)c1cc(Cl)ccc1Cl [Compound 54]	++ (++ = pIC50 4.50-5.49)	+ (+ = pIC50 4.00-4.49)
O=S(=O)(Nc1cnoc1-c1ccccc1)N1CCCCC1 [Compound 56]	++ (++ = pIC50 4.50-5.49)	+/− (+/− = pIC50 < 4.00)

Second part, the compound after the results:

SKOV3 Kynurenine cell based assay pIC50 [1]	A172 Kynurenine cell based assay pIC50 [2]	Structure (SMILES)
++ (++ = pIC50 4.50-5.49)	+++ (+++ = pIC50 ≥ 5.50)	Nc1oncc1-c1ccc(Cl)cc1 [Compound 2]
++ (++ = pIC50 4.50-5.49)	++ (++ = pIC50 4.50-5.49)	COc1ccc(-c2cnoc2N)cc1 [Compound 4]
++ (++ = pIC50 4.50-5.49)	+/− (+/− = pIC50 < 4.00)	CC(C)(C)C(=O)Nc1oncc1-c1ccc(F)cc1 [Compound 8]
+ (+ = pIC50 4.00-4.49)	++ (++ = pIC50 4.50-5.49)	Cc1noc(N)c1-c1ccccc1 [Compound 10]
++ (++ = pIC50 4.50-5.49)	++ (++ = pIC50 4.50-5.49)	Nc1oncc1-c1ccc(F)cc1F [Compound 14]
++ (++ = pIC50 4.50-5.49)	+ (+ = pIC50 4.00-4.49)	O=C(Cc1ccccc1)Nc1oncc1-c1ccccc1 [Compound 19]
++ (++ = pIC50 4.50-5.49)	++ (++ = pIC50 4.50-5.49)	CNc1oncc1-c1ccccc1 [Compound 21]
++ (++ = pIC50 4.50-5.49)	++ (++ = pIC50 4.50-5.49)	O=C(CC1CCCCC1)Nc1oncc1-c1ccccc1 [Compound 24]
++ (++ = pIC50 4.50-5.49)	+++ (+++ = pIC50 ≥ 5.50)	COCC(=O)Nc1oncc1-c1ccccc1 [Compound 25]
++ (++ = pIC50 4.50-5.49)	+++ (+++ = pIC50 ≥ 5.50)	CCOC(=O)CCC(=O)Nc1oncc1-c1ccccc1 [Compound 28]
++ (++ = pIC50 4.50-5.49)	+ (+ = pIC50 4.00-4.49)	O=S(=O)(Cc1ccccc1)Nc1oncc1-c1ccccc1 [Compound 29]
+ (+ = pIC50 4.00-4.49)	++ (++ = pIC50 4.50-5.49)	CC(C)S(=O)(=O)Nc1oncc1-c1ccccc1 [Compound 30]
+ (+ = pIC50 4.00-4.49)	+/− (+/− = pIC50 < 4.00)	O=S(=O)(CC1CCOCC1)Nc1oncc1-c1ccccc1 [Compound 32]
+/− (+/− = pIC50 < 4.00)	+ (+ = pIC50 4.00-4.49)	O=C(O)CCC(=O)Nc1oncc1-c1ccccc1 [Compound 33]
+ (+ = pIC50 4.00-4.49)	++ (++ = pIC50 4.50-5.49)	CC(=O)N1CCC(C(=O)Nc2oncc2-c2ccccc2)CC1 [Compound 35]
++ (++ = pIC50 4.50-5.49)	++ (++ = pIC50 4.50-5.49)	CN(C)CC(=O)Nc1oncc1-c1ccccc1 [Compound 37]
+ (+ = pIC50 4.00-4.49)	+++ (+++ = pIC50 ≥ 5.50)	CCOC(=O)C(=O)Nc1oncc1-c1ccccc1 [Compound 45]
+ (+ = pIC50 4.00-4.49)	++ (++ = pIC50 4.50-5.49)	Nc1oncc1-c1ccncc1 [Compound 46]
+ (+ = pIC50 4.00-4.49)	++ (++ = pIC50 4.50-5.49)	CN(CCC(=O)Nc1oncc1-c1ccccc1)S(C)(=O)=O [Compound 47]
+/− (+/− = pIC50 < 4.00)	++ (++ = pIC50 4.50-5.49)	CS(=O)(=O)NCCC(=O)Nc1oncc1-c1ccccc1 [Compound 48]
+++ (+++ = pIC50 ≥ 5.50)	+ (+ = pIC50 4.00-4.49)	c1ccc(-n2nnnc2NCC2CCCCC2)cc1 [Compound 52]
+ (+ = pIC50 4.00-4.49)	+/− (+/− = pIC50 < 4.00)	CS(=O)(=O)c1ccc(Cl)c(S(=O)(=O)Nc2cnoc2-c2ccccc2)c1 [Compound 55]
++ (++ = pIC50 4.50-5.49)	+++ (+++ = pIC50 ≥ 5.50)	OCCNc1oncc1-c1ccccc1 [Compound 57]
